These results are taken from patent US11168345B2, “Methods of identifying a polypeptide target for degradation by a modulator of CRBN” (THE BROAD INSTITUTE, INC., priority 2015, dated 2021).

Assay [1] addresses T1, Aiolos C2H2 zinc finger 2 (AA146-168) (Homo sapiens, UniProt Q96SW2+Q9UKT9).
T1 construct: attaching zinc finger 2 (amino acids 146-168) to GFP via a flexible linker; expressed in transfected cells; host or cells: HEK293T
Description: Aiolos zinc finger 2 (amino acids 146-168) GFP fusion degradation, flow cytometry. The format is cell-based. On the technique in general: A flow cytometer gives signals particle by particle.

The test system of assay [2] is RNF166. To be noted: for degradation of RNF166 in protein reporter vector (normalized EGFP:mCherry ratio): HEK293T cells, lentiviral transduction, 1 μM, cereblon and zinc finger-dependent; for degradation of zinc-finger-containing region of RNF166 fused to GFP: flow cytometry. The text has this: (§1) Bars corresponding to treatment groups A-D are consistent amongst all genetic background groups. Bar height is the average of three replicates, error bars represent 95% confidence intervals. […] Light gray (asterisk) amino acids designate positions which are components of the C2H2 zinc finger motif and are found across the C2H2 family of zinc fingers. Medium gray (black bar) amino acids are polymorphic sites in C2H2 zinc fingers.

Assay [3] concerns ZFP91. The conditions noted are these: for degradation of ZFP91 in protein reporter vector (normalized EGFP:mCherry ratio): HEK293T cells, lentiviral transduction, 1 μM, cereblon and zinc finger-dependent; for degradation of zinc-finger-containing region of ZFP91 fused to GFP: flow cytometry.
Description: as §1

For assay [4], the system named is ZNF692. The conditions noted are these: for degradation of ZNF692 in protein reporter vector (normalized EGFP:mCherry ratio): HEK293T cells, lentiviral transduction, 1 μM, cereblon and zinc finger-dependent; for degradation of zinc-finger-containing region of ZNF692 fused to GFP: flow cytometry.
Description: as §1

Assay [5] concerns the target T2, RNF166 (Homo sapiens, UniProt Q96A37+Q96SW2).
T2 construct: endogenous in cells; host or cells: MM1S, KG1
To be noted: MM1S (multiple myeloma) and KG1 (Acute Myeloid Leukemia) cell lines; datasets of Kronke et al. 2014, 2015; cited from earlier work.

The target of assay [6] is T3, ZFP91 (Homo sapiens, UniProt Q96JP5+Q96SW2).
T3 construct: endogenous in cells; host or cells: MM1S, KG1
The conditions noted are these: MM1S (multiple myeloma) and KG1 (Acute Myeloid Leukemia) cell lines; datasets of Kronke et al. 2014, 2015; cited from earlier work.

In assay [7] the target is T4, ZNF692 (Homo sapiens, UniProt Q96SW2+Q9BU19).
T4 construct: endogenous in cells; host or cells: MM1S, KG1
The conditions noted are these: MM1S (multiple myeloma) and KG1 (Acute Myeloid Leukemia) cell lines; datasets of Kronke et al. 2014, 2015; cited from earlier work.

T1 sequence (Q9UKT9 146-168 limits assumed): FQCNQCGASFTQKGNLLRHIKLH
T1 sequence (Q96SW2 whole entry, the tested form may be a part): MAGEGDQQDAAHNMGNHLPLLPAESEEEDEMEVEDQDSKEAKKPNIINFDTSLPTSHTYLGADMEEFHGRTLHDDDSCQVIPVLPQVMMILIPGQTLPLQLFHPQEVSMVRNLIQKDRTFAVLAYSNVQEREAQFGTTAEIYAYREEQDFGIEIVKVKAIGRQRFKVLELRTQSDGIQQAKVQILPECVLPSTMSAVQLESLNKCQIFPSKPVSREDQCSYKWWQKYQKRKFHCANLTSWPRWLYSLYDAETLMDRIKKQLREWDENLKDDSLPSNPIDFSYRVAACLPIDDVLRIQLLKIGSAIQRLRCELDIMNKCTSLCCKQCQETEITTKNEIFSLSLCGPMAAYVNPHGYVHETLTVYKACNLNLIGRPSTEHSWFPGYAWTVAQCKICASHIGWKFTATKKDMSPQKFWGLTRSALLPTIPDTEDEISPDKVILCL
T1 sequence (Q16531 whole entry partner, the tested form may be a part): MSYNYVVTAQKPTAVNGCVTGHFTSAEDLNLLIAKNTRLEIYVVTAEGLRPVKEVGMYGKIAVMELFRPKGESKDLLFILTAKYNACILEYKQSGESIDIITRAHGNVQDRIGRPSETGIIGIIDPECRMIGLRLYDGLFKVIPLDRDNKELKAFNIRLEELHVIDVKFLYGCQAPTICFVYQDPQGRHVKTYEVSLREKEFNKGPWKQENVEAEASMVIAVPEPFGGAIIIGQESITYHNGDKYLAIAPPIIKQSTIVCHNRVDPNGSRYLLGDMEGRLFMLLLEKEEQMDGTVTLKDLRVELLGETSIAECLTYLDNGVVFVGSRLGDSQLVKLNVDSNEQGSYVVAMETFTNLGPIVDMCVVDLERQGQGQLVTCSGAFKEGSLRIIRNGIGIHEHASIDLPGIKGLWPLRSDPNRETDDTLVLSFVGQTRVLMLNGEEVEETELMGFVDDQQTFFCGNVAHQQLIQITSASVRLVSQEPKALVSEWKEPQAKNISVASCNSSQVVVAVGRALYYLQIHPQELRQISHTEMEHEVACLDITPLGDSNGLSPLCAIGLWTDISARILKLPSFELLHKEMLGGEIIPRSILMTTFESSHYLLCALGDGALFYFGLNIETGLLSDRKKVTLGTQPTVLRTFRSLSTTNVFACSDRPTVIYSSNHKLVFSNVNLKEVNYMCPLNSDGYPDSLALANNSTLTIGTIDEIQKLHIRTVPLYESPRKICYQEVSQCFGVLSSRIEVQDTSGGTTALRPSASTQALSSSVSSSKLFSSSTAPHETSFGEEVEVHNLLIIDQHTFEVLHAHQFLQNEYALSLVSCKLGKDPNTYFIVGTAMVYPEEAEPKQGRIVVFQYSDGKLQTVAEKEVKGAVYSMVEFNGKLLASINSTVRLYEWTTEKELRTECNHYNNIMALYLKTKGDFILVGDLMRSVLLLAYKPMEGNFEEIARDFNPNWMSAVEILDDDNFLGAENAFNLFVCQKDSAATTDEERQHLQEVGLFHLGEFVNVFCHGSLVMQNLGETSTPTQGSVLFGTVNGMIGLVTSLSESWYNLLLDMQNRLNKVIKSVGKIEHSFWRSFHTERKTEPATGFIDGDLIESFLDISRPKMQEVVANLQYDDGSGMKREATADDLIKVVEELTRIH
T3 sequence (Q96JP5 2-570 limits assumed): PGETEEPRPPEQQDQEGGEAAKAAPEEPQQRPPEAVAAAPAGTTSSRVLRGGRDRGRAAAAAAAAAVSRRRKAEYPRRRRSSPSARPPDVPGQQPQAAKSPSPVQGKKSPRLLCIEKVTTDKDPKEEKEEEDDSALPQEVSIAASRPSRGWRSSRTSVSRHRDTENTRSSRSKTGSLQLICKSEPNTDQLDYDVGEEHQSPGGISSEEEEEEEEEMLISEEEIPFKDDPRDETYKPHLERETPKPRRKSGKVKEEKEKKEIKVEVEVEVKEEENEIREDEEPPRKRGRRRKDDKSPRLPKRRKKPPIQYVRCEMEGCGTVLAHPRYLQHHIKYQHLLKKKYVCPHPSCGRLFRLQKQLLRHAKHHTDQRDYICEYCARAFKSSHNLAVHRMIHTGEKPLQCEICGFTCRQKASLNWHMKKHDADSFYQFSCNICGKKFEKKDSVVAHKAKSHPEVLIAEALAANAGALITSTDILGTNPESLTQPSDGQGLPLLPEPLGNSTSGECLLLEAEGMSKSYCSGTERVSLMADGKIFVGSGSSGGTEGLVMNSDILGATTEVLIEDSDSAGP
T3 sequence (Q96SW2 whole entry): as the sequence (Q96SW2 whole entry, the tested form may be a part) above
T3 sequence (Q16531 whole entry partner): as the sequence (Q16531 whole entry partner, the tested form may be a part) above
T2 sequence (Q96A37 whole entry): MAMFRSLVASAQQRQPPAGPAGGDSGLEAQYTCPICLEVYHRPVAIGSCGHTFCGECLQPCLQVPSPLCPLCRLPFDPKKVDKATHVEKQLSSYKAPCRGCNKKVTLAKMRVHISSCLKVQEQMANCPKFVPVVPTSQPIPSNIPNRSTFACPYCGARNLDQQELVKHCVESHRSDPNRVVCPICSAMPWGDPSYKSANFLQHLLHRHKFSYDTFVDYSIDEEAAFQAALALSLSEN
T2 sequence (Q96SW2 whole entry): as the sequence (Q96SW2 whole entry, the tested form may be a part) above
T2 sequence (Q16531 whole entry partner): as the sequence (Q16531 whole entry partner, the tested form may be a part) above
T4 sequence (Q9BU19 whole entry): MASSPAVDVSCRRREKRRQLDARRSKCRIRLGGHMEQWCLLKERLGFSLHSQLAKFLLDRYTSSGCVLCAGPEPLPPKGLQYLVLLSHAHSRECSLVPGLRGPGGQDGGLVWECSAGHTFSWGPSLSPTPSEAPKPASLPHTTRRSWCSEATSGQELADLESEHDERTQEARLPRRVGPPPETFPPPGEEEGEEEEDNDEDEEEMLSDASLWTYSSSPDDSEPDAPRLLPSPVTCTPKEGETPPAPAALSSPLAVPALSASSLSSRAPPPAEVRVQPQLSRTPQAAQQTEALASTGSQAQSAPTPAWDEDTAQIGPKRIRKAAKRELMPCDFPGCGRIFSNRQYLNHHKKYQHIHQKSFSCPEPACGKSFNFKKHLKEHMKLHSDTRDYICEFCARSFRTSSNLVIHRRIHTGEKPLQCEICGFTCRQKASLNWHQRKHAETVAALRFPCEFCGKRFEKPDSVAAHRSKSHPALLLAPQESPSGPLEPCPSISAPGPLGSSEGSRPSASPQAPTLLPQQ
T4 sequence (Q96SW2 whole entry): as the sequence (Q96SW2 whole entry, the tested form may be a part) above
T4 sequence (Q16531 whole entry partner): as the sequence (Q16531 whole entry partner, the tested form may be a part) above

Take `Nc1cccc2c1C(=O)N(C1CCC(=O)NC1=O)C2=O` (centres unmarked) [pomalidomide]: the “second C2H2 zinc finger in Aiolos (amino acids 146-169) inducing targeting by the drug” value in assay [1] is “both necessary and sufficient to induce targeting”. Besides, in the assay with RNF166 [2], the “degradation of RNF166 in protein reporter vector (normalized EGFP:mCherry ratio)” value is “degraded” and the “degradation of zinc-finger-containing region of RNF166 fused to GFP” value is on record as “degraded with varying efficiencies”. Further, in the assay with ZFP91 [3], the “degradation of ZFP91 in protein reporter vector (normalized EGFP:mCherry ratio)” value is on record as “degraded” and the “degradation of zinc-finger-containing region of ZFP91 fused to GFP” value is listed as “degraded with varying efficiencies”. Further, in the assay on ZNF692 [4], the “degradation of ZNF692 in protein reporter vector (normalized EGFP:mCherry ratio)” value is “degraded” and the “degradation of zinc-finger-containing region of ZNF692 fused to GFP” value was “degraded with varying efficiencies”.
On to `O=C1CCC(N2C(=O)c3ccccc3C2=O)C(=O)N1` (centres unmarked) [thalidomide], for which the “second C2H2 zinc finger in Aiolos (amino acids 146-169) inducing targeting by the drug” value in assay [1] is “both necessary and sufficient to induce targeting”. Moreover, in the assay on RNF166 [2], the “degradation of RNF166 in protein reporter vector (normalized EGFP:mCherry ratio)” value was “degraded” and the “degradation of zinc-finger-containing region of RNF166 fused to GFP” value is reported as “degraded with varying efficiencies”. Also, in the assay with ZFP91 [3], the “degradation of ZFP91 in protein reporter vector (normalized EGFP:mCherry ratio)” value is reported as “degraded” and the “degradation of zinc-finger-containing region of ZFP91 fused to GFP” value is given as “degraded with varying efficiencies”. Also, in the assay on ZNF692 [4], the “degradation of ZNF692 in protein reporter vector (normalized EGFP:mCherry ratio)” value was “degraded” and the “degradation of zinc-finger-containing region of ZNF692 fused to GFP” value is “degraded with varying efficiencies”. For the same compound, the “RNF166 protein abundance in the presence of drug” value at RNF166 [5] is “significant decrease in abundance”. The “ZFP91 protein abundance in the presence of drug” value on ZFP91 [6] is listed as “significant decrease in abundance”. Also, the “ZNF692 protein abundance in the presence of drug” value on ZNF692 [7] is “significant decrease in abundance”.
